# Legend:
# [1] = target: PAK6 (human) (UniProt Q9NQU5)
# [2] = target: EPHB3 (human) (UniProt P54753)
# [3] = target: IGF1R (human) (UniProt P08069)
# [4] = test system: RPS6KB1 (human), P23443 [T412E]
# [5] = target: EEF2K (human) (UniProt O00418)
# [6] = target: MELK (human) (UniProt Q14680)
# [7] = target: IKBKE (human) (UniProt Q14164)
# [8] = target: SRPK1 (human) (UniProt Q96SB4)
# [9] = target: MAPK9 (human) (UniProt P45984); details: compound 1.0 µM
# [10] = target: MARK3 (human) (UniProt P27448)
# [11] = target: MAPK15 (human) (UniProt Q8TD08)
# [12] = target: PAK7 (human) (UniProt Q9P286); details: compound 10.0 µM
# [13] = target: PRKCZ (human) (UniProt Q05513)
# [14] = target: PHKG1 (human) (UniProt Q16816)
# [15] = target: PLK1 (human) (UniProt P53350)
# [16] = target: SYK (human) (UniProt P43405)
# [17] = target: CSNK1D (human) (UniProt P48730)
# [18] = target: CAMKK2 (human) (UniProt Q96RR4)
# [19] = target: MKNK1 (human) (UniProt Q9BUB5)
# [20] = target: CDK2 CCNA2 (human) (UniProt P20248+P24941)
# [21] = test system: ROCK2 (rat); details: accession and sequence are those of the human protein
# [22] = target: PIM2 (human) (UniProt Q9P1W9)
# [23] = target: GSK3B (human) (UniProt P49841)
# [24] = target: MAPKAPK2 (human) (UniProt P49137)
# [25] = target: STK3 (human) (UniProt Q13188)
# [26] = target: SRC (human) (UniProt P12931)
# [27] = target: PIM3 (human) (UniProt Q86V86)
# [28] = target: NEK2 (human) (UniProt P51955)
# [29] = target: RPS6KA5 KD1 KD2 (human) (UniProt O75582); details: compound 1.0 µM
# [30] = target: MAPK12 (human) (UniProt P53778)
# [31] = target: DYRK3 (human) (UniProt O43781)
# [32] = target: PRKACA (human) (UniProt P17612)
# [33] = target: CHEK1 (human) (UniProt O14757)
# [34] = target: TBK1 (human) (UniProt Q9UHD2)
# Sequence of MAPK12 (human) (P53778 whole entry, looked up): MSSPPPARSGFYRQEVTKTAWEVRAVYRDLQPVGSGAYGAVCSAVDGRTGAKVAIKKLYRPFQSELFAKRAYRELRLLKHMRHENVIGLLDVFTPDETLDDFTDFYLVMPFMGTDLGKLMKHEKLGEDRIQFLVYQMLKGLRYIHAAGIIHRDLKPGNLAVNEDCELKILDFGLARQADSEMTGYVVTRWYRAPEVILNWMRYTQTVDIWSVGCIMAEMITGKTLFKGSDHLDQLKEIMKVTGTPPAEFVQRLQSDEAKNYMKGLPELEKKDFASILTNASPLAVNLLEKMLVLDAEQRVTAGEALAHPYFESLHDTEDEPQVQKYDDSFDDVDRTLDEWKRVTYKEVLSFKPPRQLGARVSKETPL
# Sequence of CSNK1D (human) (P48730 whole entry, looked up): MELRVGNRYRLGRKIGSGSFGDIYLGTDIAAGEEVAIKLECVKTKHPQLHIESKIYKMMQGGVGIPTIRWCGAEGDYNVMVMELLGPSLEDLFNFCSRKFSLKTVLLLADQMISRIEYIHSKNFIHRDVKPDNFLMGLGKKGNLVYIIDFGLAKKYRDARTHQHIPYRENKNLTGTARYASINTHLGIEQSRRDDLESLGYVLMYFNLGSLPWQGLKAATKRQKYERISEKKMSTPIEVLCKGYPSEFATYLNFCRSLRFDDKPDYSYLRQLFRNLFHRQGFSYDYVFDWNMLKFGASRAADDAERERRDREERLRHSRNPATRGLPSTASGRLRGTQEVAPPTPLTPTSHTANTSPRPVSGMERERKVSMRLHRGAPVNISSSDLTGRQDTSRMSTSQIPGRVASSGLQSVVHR
# Sequence of MELK (human) (Q14680 whole entry, looked up): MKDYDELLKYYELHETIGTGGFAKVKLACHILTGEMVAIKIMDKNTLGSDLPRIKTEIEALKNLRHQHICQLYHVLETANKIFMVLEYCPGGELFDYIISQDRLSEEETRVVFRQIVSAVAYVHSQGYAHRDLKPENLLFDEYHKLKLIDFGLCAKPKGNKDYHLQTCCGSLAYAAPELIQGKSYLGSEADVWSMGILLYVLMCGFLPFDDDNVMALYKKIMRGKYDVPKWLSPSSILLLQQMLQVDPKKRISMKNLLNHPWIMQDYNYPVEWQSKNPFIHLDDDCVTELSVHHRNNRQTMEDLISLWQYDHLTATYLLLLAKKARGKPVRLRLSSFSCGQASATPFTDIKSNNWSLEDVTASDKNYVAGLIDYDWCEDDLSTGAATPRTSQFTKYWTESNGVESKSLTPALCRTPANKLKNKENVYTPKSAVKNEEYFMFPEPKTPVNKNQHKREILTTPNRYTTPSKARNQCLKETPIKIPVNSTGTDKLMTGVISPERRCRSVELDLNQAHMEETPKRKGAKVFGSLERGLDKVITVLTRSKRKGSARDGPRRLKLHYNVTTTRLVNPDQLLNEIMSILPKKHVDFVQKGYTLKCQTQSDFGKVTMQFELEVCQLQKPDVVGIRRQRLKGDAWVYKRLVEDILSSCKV
# Sequence of CAMKK2 (human) (Q96RR4 whole entry, looked up): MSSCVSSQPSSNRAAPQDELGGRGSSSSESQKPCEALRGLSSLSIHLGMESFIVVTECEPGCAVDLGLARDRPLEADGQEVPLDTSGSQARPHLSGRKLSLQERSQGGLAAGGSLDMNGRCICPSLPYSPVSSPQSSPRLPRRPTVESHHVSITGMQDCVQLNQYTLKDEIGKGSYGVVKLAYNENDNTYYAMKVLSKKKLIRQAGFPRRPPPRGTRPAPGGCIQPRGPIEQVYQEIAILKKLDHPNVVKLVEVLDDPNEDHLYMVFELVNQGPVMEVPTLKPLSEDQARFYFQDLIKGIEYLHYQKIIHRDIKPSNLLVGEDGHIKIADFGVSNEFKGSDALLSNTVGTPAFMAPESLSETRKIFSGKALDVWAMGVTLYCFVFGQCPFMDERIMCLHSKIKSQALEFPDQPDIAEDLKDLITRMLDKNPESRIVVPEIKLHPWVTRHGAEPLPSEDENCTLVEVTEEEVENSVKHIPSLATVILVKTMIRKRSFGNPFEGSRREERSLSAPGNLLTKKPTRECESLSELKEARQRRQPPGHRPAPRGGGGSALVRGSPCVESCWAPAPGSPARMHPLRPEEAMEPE
# Sequence of GSK3B (human) (P49841 whole entry, looked up): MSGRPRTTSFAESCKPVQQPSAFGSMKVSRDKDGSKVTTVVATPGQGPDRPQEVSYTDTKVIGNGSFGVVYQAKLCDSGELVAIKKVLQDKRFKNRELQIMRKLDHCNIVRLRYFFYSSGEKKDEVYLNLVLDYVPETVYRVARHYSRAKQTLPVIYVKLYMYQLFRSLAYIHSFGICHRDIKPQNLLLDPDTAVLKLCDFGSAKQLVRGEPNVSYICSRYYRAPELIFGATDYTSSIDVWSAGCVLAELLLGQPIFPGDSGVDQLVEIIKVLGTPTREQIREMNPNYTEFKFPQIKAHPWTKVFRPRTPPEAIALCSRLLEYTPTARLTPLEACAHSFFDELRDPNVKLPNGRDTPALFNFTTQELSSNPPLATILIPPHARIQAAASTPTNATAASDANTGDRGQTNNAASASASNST
# Sequence of EEF2K (human) (O00418 whole entry, looked up): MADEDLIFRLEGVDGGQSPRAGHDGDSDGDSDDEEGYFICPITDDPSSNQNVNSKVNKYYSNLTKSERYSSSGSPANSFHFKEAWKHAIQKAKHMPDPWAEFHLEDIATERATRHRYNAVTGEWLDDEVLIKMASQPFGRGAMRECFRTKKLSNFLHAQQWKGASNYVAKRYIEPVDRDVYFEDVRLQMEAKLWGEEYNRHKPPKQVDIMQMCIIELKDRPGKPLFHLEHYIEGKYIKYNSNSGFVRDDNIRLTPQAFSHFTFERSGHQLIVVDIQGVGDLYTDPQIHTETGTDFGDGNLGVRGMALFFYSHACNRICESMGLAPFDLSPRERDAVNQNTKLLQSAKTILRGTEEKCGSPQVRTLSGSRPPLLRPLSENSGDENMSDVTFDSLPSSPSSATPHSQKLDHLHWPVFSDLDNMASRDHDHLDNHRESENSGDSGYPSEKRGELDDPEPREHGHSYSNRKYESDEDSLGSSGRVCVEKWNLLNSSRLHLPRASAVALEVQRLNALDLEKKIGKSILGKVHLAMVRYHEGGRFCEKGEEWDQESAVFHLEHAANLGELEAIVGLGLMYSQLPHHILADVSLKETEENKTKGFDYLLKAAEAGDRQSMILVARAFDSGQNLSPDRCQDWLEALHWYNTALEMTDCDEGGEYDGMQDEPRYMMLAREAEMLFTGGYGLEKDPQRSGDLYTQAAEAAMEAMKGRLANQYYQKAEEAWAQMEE
# Sequence of MARK3 (human) (P27448 whole entry, looked up): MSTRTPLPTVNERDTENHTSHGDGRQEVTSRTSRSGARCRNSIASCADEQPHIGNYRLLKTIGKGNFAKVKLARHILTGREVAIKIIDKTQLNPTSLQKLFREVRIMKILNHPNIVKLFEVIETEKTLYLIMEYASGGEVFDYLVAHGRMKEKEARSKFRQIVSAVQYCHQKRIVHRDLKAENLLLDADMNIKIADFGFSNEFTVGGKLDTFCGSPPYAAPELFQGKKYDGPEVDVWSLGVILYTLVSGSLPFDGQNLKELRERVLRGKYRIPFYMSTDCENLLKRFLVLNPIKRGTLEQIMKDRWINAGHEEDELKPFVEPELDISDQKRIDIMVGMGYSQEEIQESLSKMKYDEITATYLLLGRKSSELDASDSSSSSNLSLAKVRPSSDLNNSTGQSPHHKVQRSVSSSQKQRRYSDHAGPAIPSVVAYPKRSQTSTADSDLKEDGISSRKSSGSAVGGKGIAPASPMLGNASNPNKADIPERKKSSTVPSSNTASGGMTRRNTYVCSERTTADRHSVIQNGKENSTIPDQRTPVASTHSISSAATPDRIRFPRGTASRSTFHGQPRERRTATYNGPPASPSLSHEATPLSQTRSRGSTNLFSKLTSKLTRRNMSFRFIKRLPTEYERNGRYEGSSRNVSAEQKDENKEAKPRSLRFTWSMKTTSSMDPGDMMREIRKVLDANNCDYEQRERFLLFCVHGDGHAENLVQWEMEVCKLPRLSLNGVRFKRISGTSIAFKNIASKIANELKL
# Sequence of MAPKAPK2 (human) (P49137 whole entry, looked up): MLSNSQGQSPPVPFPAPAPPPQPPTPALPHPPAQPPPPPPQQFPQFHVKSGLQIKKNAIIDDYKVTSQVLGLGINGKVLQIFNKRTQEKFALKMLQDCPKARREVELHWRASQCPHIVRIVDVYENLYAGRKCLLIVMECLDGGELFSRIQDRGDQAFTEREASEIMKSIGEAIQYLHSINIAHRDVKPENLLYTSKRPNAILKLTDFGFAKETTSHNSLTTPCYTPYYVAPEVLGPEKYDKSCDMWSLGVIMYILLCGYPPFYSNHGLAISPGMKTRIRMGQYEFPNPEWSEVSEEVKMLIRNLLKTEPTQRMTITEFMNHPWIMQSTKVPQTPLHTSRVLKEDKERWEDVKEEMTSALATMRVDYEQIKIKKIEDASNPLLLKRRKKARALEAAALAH
# Sequence of PIM2 (human) (Q9P1W9 whole entry, looked up): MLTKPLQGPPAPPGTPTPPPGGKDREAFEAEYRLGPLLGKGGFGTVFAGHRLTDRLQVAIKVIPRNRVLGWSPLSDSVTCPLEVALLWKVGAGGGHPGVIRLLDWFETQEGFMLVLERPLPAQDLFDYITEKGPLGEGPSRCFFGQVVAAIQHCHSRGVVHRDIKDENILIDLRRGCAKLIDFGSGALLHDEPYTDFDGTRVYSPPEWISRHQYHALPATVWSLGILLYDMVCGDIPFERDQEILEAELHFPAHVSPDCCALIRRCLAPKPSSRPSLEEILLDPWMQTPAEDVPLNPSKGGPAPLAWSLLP
structure (smiles),measurement,setting,value
CCC(=O)N1CCN(c2ccc(-n3c(=O)ccc4cnc5ccc(-c6cnc7ccccc7c6)cc5c43)cc2C(F)(F)F)CC1,per cent of control,[1]; compound 1.0 µM,110%
same,per cent of control,[1]; compound 10.0 µM,80%
same,per cent of control,[2]; compound 1.0 µM,115%
same,per cent of control,[2]; compound 10.0 µM,94%
same,per cent of control,[3]; compound 1.0 µM,100%
same,per cent of control,[3]; compound 10.0 µM,93%
same,per cent of control,[4]; compound 1.0 µM,97%
same,per cent of control,[4]; compound 10.0 µM,81%
same,per cent of control,[5]; compound 1.0 µM,118%
same,per cent of control,[5]; compound 10.0 µM,111%
same,per cent of control,[6]; compound 1.0 µM,63%
same,per cent of control,[6]; compound 10.0 µM,17%
same,per cent of control,[7]; compound 1.0 µM,96%
same,per cent of control,[7]; compound 10.0 µM,85%
same,per cent of control,[8]; compound 1.0 µM,107%
same,per cent of control,[8]; compound 10.0 µM,110%
same,per cent of control,[9],98%
same,per cent of control,[10]; compound 1.0 µM,99%
same,per cent of control,[10]; compound 10.0 µM,98%
same,per cent of control,[11]; compound 1.0 µM,78%
same,per cent of control,[11]; compound 10.0 µM,46%
same,per cent of control,[12],61%
same,per cent of control,[13]; compound 1.0 µM,121%
same,per cent of control,[13]; compound 10.0 µM,106%
same,per cent of control,[14]; compound 1.0 µM,110%
same,per cent of control,[14]; compound 10.0 µM,99%
same,per cent of control,[15]; compound 1.0 µM,94%
same,per cent of control,[15]; compound 10.0 µM,84%
same,per cent of control,[16]; compound 1.0 µM,131%
same,per cent of control,[16]; compound 10.0 µM,68%
same,per cent of control,[17]; compound 1.0 µM,93%
same,per cent of control,[17]; compound 10.0 µM,104%
same,per cent of control,[18]; compound 1.0 µM,95%
same,per cent of control,[18]; compound 10.0 µM,81%
same,per cent of control,[19]; compound 1.0 µM,93%
same,per cent of control,[19]; compound 10.0 µM,96%
same,per cent of control,[20]; compound 1.0 µM,108%
same,per cent of control,[20]; compound 10.0 µM,77%
same,per cent of control,[21]; compound 1.0 µM,96%
same,per cent of control,[21]; compound 10.0 µM,101%
same,per cent of control,[22]; compound 1.0 µM,86%
same,per cent of control,[22]; compound 10.0 µM,96%
same,per cent of control,[23]; compound 1.0 µM,79%
same,per cent of control,[23]; compound 10.0 µM,49%
same,per cent of control,[24]; compound 1.0 µM,102%
same,per cent of control,[24]; compound 10.0 µM,108%
same,per cent of control,[25]; compound 1.0 µM,97%
same,per cent of control,[25]; compound 10.0 µM,79%
same,per cent of control,[26]; compound 1.0 µM,60%
same,per cent of control,[26]; compound 10.0 µM,52%
same,per cent of control,[27]; compound 1.0 µM,85%
same,per cent of control,[27]; compound 10.0 µM,30%
same,per cent of control,[28]; compound 1.0 µM,88%
same,per cent of control,[28]; compound 10.0 µM,99%
same,per cent of control,[29],86%
same,per cent of control,[30]; compound 1.0 µM,103%
same,per cent of control,[30]; compound 10.0 µM,129%
same,per cent of control,[31]; compound 1.0 µM,88%
same,per cent of control,[31]; compound 10.0 µM,52%
same,per cent of control,[32]; compound 1.0 µM,106%
same,per cent of control,[32]; compound 10.0 µM,96%
same,per cent of control,[33]; compound 1.0 µM,106%
same,per cent of control,[33]; compound 10.0 µM,125%
same,per cent of control,[34]; compound 1.0 µM,96%
same,per cent of control,[34]; compound 10.0 µM,87%

# Reference: the kinase profiling compilation of Christmann-Franck et al. (2016)
